# Tests used:
# Assay type in all cases: in vivo
# rice (Oryza sativa) = assay: Test C flooded paddy test: rice; details: scale 0 to 100 (0 no effect, 100 complete control)
# Summary of the method: (§1)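 Greenhouse plants treated at the 2-leaf stage by dosing the flood water (3 cm depth, maintained) were compared with controls after 13 to 15 days and rated 0 to 100, where 100 means complete control; a dash marks no test result.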
# [1] = system: foxtail, giant (giant foxtail, Setaria faberii); assay: Test A pre-/postemergence: foxtail, giant; details: for Foxtail, Giant plant response rating: Postemergence; for Plant response rating, Foxtail, Giant: Preemergence
# Summary of the method: (§2)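 Soil medium was loam blended with sand; treatments pre- and postemergence were applied concurrently, postemergence at one- to two-leaf stage. Approximately ten days in greenhouse preceded visual comparison with untreated controls, scored 0 (no effect) to 100 (complete control).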
# [2] = system: barnyardgrass (Echinochloa crus-galli); assay: Test C flooded paddy test: barnyardgrass; details: scale 0 to 100 (0 no effect, 100 complete control)
# Summary of the method: as §1
# corn (Zea mays) = assay: Test A pre-/postemergence: corn; details: for Corn plant response rating: Postemergence; for Plant response rating, Corn: Preemergence
# Summary of the method: as §2
# [3] = system: morningglory (Ipomoea spp.); assay: Test A pre-/postemergence: morningglory; details: for Morningglory plant response rating: Postemergence; for Plant response rating, Morningglory: Preemergence
# Summary of the method: as §2
# [4] = system: barnyardgrass (Echinochloa crus-galli); assay: Test A pre-/postemergence: barnyardgrass; details: for Barnyardgrass plant response rating: Postemergence; for Plant response rating, Barnyardgrass: Preemergence
# Summary of the method: as §2
# [5] = system: pigweed (Amaranthus retroflexus); assay: Test A pre-/postemergence: pigweed; details: for Pigweed plant response rating: Postemergence; for Plant response rating, Pigweed: Preemergence
# Summary of the method: as §2
# [6] = system: crabgrass, large (large crabgrass, Digitaria sanguinalis); assay: Test A pre-/postemergence: crabgrass, large; details: for Crabgrass, Large plant response rating: Postemergence; for Plant response rating, Crabgrass, Large: Preemergence
# Summary of the method: as §2
# [7] = system: velvetleaf (Abutilon theophrasti); assay: Test A pre-/postemergence: velvetleaf; details: for Velvetleaf plant response rating: Postemergence; for Plant response rating, Velvetleaf: Preemergence
# Summary of the method: as §2
# [8] = system: wheat (Triticum aestivum); assay: Test A pre-/postemergence: wheat; details: for Wheat plant response rating: Postemergence; for Plant response rating, Wheat: Preemergence
# Summary of the method: as §2
# [9] = system: ducksalad (Heteranthera limosa); assay: Test C flooded paddy test: ducksalad; details: scale 0 to 100 (0 no effect, 100 complete control)
# Summary of the method: as §1
# [10] = system: sedge, umbrella (small-flower umbrella sedge, Cyperus difformis); assay: Test C flooded paddy test: sedge, umbrella; details: scale 0 to 100 (0 no effect, 100 complete control)
# Summary of the method: as §1
# [11] = Flood (flooded paddy test), 62 g ai/ha, visual rating after 13 to 15 days
# [12] = Flood (flooded paddy test), 250 g ai/ha, visual rating after 13 to 15 days
# [13] = 125 g ai/ha, 0 to 100 scale, 0 is no effect, 100 is complete control
# [14] = 500 g ai/ha, visual rating on 0 to 100 scale (0 no effect, 100 complete control), approximately ten days
# [15] = 125 g ai/ha, 0 to 100 scale (0 no effect, 100 complete control)
# [16] = 500 g ai/ha, 0 to 100 scale, 0 is no effect, 100 is complete control
# [17] = Flood (flooded paddy test), 125 g ai/ha, visual rating after 13 to 15 days
smiles,measurement,setting,value
Cc1nn(-c2ccc(Cl)cc2)nc1Oc1ccnc(C(F)(F)F)c1 [Compound 52],"Plant response rating, Rice",rice (Oryza sativa); [11],15
same,"Plant response rating, Rice",rice (Oryza sativa); [12],40
same,"Foxtail, Giant plant response rating",[1]; [13],50
same,"Foxtail, Giant plant response rating",[1]; [14],100
same,"Plant response rating, Foxtail, Giant",[1]; [15],100
same,"Plant response rating, Foxtail, Giant",[1]; [16],100
same,"Plant response rating, Barnyardgrass",[2]; [11],40
same,"Plant response rating, Barnyardgrass",[2]; [12],75
same,Corn plant response rating,corn (Zea mays); [13],10
same,Corn plant response rating,corn (Zea mays); [14],20
same,"Plant response rating, Corn",corn (Zea mays); [15],0
same,"Plant response rating, Corn",corn (Zea mays); [16],10
same,Morningglory plant response rating,[3]; [13],40
same,Morningglory plant response rating,[3]; [14],100
same,"Plant response rating, Morningglory",[3]; [15],10
same,"Plant response rating, Morningglory",[3]; [16],20
same,Barnyardgrass plant response rating,[4]; [13],20
same,Barnyardgrass plant response rating,[4]; [14],70
same,"Plant response rating, Barnyardgrass",[4]; [15],20
same,"Plant response rating, Barnyardgrass",[4]; [16],90
same,Pigweed plant response rating,[5]; [13],100
same,Pigweed plant response rating,[5]; [14],100
same,"Plant response rating, Pigweed",[5]; [15],100
same,"Crabgrass, Large plant response rating",[6]; [13],50
same,"Crabgrass, Large plant response rating",[6]; [14],100
same,"Plant response rating, Crabgrass, Large",[6]; [15],100
same,"Plant response rating, Crabgrass, Large",[6]; [16],100
same,Velvetleaf plant response rating,[7]; [13],30
same,Velvetleaf plant response rating,[7]; [14],100
same,"Plant response rating, Velvetleaf",[7]; [15],0
same,"Plant response rating, Velvetleaf",[7]; [16],10
same,Wheat plant response rating,[8]; [13],10
same,Wheat plant response rating,[8]; [14],20
same,"Plant response rating, Wheat",[8]; [15],0
same,"Plant response rating, Wheat",[8]; [16],0
same,"Plant response rating, Ducksalad",[9]; [11],80
same,"Plant response rating, Ducksalad",[9]; [12],95
same,"Plant response rating, Sedge, Umbrella",[10]; [11],65
same,"Plant response rating, Sedge, Umbrella",[10]; [12],85
Cc1nn(-c2ccc(C(F)(F)F)nc2)nc1C(=O)c1cccc(C(F)(F)F)c1 [Compound 73],"Plant response rating, Rice",rice (Oryza sativa); [11],0
same,"Plant response rating, Rice",rice (Oryza sativa); [17],0
same,"Plant response rating, Rice",rice (Oryza sativa); [12],0
same,"Plant response rating, Rice","rice (Oryza sativa); Flood, 31 g ai/ha",0
same,"Foxtail, Giant plant response rating",[1]; [13],10
same,"Foxtail, Giant plant response rating",[1]; [14],40
same,"Plant response rating, Foxtail, Giant",[1]; [15],60
same,"Plant response rating, Foxtail, Giant",[1]; [16],90
same,"Plant response rating, Barnyardgrass",[2]; [11],0
same,"Plant response rating, Barnyardgrass",[2]; [17],0
same,"Plant response rating, Barnyardgrass",[2]; [12],0
same,"Plant response rating, Barnyardgrass","[2]; Flood, 31 g ai/ha",0
same,Corn plant response rating,corn (Zea mays); [13],10
same,Corn plant response rating,corn (Zea mays); [14],20
same,"Plant response rating, Corn",corn (Zea mays); [15],0
same,"Plant response rating, Corn",corn (Zea mays); [16],0
same,Morningglory plant response rating,[3]; [13],20
same,Morningglory plant response rating,[3]; [14],70
same,"Plant response rating, Morningglory",[3]; [15],0
same,"Plant response rating, Morningglory",[3]; [16],10
same,Barnyardgrass plant response rating,[4]; [13],10
same,Barnyardgrass plant response rating,[4]; [14],30
same,"Plant response rating, Barnyardgrass",[4]; [15],0
same,"Plant response rating, Barnyardgrass",[4]; [16],40
same,Pigweed plant response rating,[5]; [13],70
same,Pigweed plant response rating,[5]; [14],100
same,"Plant response rating, Pigweed",[5]; [15],30
same,"Plant response rating, Pigweed",[5]; [16],100
same,"Crabgrass, Large plant response rating",[6]; [13],20
same,"Crabgrass, Large plant response rating",[6]; [14],60
same,"Plant response rating, Crabgrass, Large",[6]; [15],50
same,"Plant response rating, Crabgrass, Large",[6]; [16],90
same,Velvetleaf plant response rating,[7]; [13],20
same,Velvetleaf plant response rating,[7]; [14],40
same,"Plant response rating, Velvetleaf",[7]; [15],0
same,"Plant response rating, Velvetleaf",[7]; [16],10
same,Wheat plant response rating,[8]; [13],10
same,Wheat plant response rating,[8]; [14],20
same,"Plant response rating, Wheat",[8]; [15],0
same,"Plant response rating, Wheat",[8]; [16],10
same,"Plant response rating, Ducksalad",[9]; [11],0
same,"Plant response rating, Ducksalad",[9]; [17],0
same,"Plant response rating, Ducksalad",[9]; [12],85
same,"Plant response rating, Ducksalad","[9]; Flood, 31 g ai/ha",0
same,"Plant response rating, Sedge, Umbrella",[10]; [11],0
same,"Plant response rating, Sedge, Umbrella",[10]; [17],0
same,"Plant response rating, Sedge, Umbrella",[10]; [12],0
same,"Plant response rating, Sedge, Umbrella","[10]; Flood, 31 g ai/ha",0
